From ChEMBL document CHEMBL1909046, “DrugMatrix in vitro pharmacology data”

Legend:
[1] = molecular target: 5-hydroxytryptamine receptor 2B (Homo sapiens, UniProt P41595); type: cell membranes, CHO-K1, Membrane; conditions: for Ki: read-out: Ki; for all read-outs here: in other assays of this panel Not Active means under 50% inhibition at 10 µM
[2] = molecular target: Carbonic anhydrase 2 (Homo sapiens, UniProt P00918); test: DRUGMATRIX: Carbonic Anhydrase II enzyme inhibition (substrate: 4-Nitrophenyl acetate (4-NPA)); type: tissue-based, Erythrocyte; conditions: Not Active = under 50% inhibition at 10 µM
[3] = DRUGMATRIX: GABAA, Chloride Channel, TBOB radioligand binding (ligand: [3H] TBOB); type: cell membranes, Rattus norvegicus, Wistar, Cerebral cortex, Membrane; conditions: Not Active = under 50% inhibition at 10 µM
[4] = molecular target: Histamine H2 receptor (Homo sapiens, UniProt P25021); type: cell membranes, CHO-K1, Membrane; conditions: for Ki: read-out: Ki; for all read-outs here: in other assays of this panel Not Active means under 50% inhibition at 10 µM
Chain of Histamine H2 receptor (P25021 whole entry): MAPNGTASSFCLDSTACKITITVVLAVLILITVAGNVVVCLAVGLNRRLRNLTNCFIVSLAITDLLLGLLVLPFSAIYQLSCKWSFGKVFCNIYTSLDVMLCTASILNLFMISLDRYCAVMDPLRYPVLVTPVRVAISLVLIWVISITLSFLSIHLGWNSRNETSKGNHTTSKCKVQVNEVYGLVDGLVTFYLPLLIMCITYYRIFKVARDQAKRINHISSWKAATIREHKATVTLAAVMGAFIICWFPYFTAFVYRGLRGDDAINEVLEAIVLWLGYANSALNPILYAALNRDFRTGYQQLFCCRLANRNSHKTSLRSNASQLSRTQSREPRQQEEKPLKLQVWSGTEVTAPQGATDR

[5] = molecular target: T1, Muscarinic acetylcholine receptor M4 (Homo sapiens, UniProt P08173); type: cell membranes, CHO-K1, Membrane; note: in other assays of this panel Not Active means under 50% inhibition at 10 µM
T1 sequence (P08173 whole entry): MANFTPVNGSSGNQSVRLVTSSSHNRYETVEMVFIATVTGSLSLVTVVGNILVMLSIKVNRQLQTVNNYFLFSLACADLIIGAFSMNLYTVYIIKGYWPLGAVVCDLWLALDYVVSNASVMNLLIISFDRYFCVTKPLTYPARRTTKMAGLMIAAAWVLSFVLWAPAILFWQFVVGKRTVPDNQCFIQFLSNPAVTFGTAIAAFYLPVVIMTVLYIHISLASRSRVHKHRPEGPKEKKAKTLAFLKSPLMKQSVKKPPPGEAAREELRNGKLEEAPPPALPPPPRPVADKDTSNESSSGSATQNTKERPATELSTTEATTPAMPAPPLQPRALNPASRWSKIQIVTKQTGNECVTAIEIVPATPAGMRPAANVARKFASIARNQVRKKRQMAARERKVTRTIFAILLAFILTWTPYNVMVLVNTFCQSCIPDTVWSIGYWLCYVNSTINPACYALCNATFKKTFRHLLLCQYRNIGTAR

[6] = molecular target: Cytochrome P450 2E1 (Homo sapiens, UniProt P05181); conditions: bti-tn-5b1-4; note: in other assays of this panel Not Active means under 50% inhibition at 10 µM
Chain of Cytochrome P450 2E1 (P05181 whole entry): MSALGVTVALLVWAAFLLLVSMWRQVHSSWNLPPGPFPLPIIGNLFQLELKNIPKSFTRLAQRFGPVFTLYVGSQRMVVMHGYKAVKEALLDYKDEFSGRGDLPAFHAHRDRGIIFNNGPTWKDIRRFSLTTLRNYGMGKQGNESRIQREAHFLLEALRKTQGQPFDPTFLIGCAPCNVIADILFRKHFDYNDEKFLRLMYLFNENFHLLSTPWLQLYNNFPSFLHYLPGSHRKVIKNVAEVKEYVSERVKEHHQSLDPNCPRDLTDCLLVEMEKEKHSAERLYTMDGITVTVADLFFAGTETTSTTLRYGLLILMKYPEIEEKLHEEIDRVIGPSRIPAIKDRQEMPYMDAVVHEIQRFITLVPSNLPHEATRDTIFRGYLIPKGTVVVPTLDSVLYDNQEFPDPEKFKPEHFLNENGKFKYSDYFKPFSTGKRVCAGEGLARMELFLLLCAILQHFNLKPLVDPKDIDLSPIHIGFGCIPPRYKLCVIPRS

Chain of 5-hydroxytryptamine receptor 2B (P41595 whole entry): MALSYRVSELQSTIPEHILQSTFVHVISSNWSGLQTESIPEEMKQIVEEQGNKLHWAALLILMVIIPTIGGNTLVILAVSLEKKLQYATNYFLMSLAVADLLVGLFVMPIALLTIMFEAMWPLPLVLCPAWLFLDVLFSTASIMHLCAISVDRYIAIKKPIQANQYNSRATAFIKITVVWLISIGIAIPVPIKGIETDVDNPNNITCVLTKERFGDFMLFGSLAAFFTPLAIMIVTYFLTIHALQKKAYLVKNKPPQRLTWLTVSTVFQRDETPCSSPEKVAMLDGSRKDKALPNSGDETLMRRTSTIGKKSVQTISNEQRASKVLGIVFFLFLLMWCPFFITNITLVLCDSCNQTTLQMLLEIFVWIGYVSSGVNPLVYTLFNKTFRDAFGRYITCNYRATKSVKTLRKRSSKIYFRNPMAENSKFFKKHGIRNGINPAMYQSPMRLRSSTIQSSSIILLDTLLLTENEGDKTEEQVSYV

Compound | IC50 ([1]; cho-k1) | IC50 ([2]; erythrocyte) | IC50 [3] | Ki [3] | IC50 ([4]; cho-k1) | IC50 ([5]; cho-k1) | IC50 [6] | Ki [6] | IC50 ([1]; read-out: IC50) [µM] | Ki [1] [µM] | IC50 ([4]; read-out: IC50) [µM] | Ki [4] [µM] | IC50 ([5]; read-out: IC50) [µM] | Ki ([5]; read-out: Ki) [µM] | IC50 ([2]; read-out: IC50) [µM]
COc1cc(N)nc2[nH]c(-c3ccc(F)cc3)c(-c3ccncc3)c12 | Not Active | Not Active | Not Active | Not Active | Not Active | Not Active | Not Active | Not Active | – | – | – | – | – | – | –
CNS(=O)(=O)Cc1ccc2[nH]cc(CCN(C)C)c2c1 | Not Active | Not Active | Not Active | Not Active | Not Active | Not Active | Not Active | Not Active | – | – | – | – | – | – | –
CCCc1nn(C)c2c(=O)[nH]c(-c3cc(S(=O)(=O)N4CCN(C)CC4)ccc3OCC)nc12 | Not Active | Not Active | Not Active | Not Active | Not Active | Not Active | Not Active | Not Active | – | – | – | – | – | – | –
COc1ccc(/C=C/C(=O)Nc2ccccc2C(=O)O)cc1OC | Not Active | Not Active | Not Active | Not Active | Not Active | Not Active | Not Active | Not Active | – | – | – | – | – | – | –
CCOC(N)=O | Not Active | Not Active | Not Active | Not Active | Not Active | Not Active | Not Active | Not Active | – | – | – | – | – | – | –
CC(=O)Nc1nnc(S(N)(=O)=O)s1 [ACETAZOLAMIDE] | Not Active | – | – | – | Not Active | Not Active | Not Active | Not Active | – | – | – | – | – | – | –
O=c1[nH]c2ccccc2n1CCCN1CCC(n2c(=O)[nH]c3cc(Cl)ccc32)CC1 [DOMPERIDONE] | – | Not Active | – | – | Not Active | Not Active | – | – | – | – | – | – | – | – | –
CC1=C(CC(=O)O)c2cc(F)ccc2/C1=C\c1ccc(S(C)(=O)=O)cc1 [EXISULIND] | Not Active | Not Active | Not Active | Not Active | Not Active | Not Active | Not Active | Not Active | – | – | – | – | – | – | –
CC(C)OC(=O)C(C)(C)Oc1ccc(C(=O)c2ccc(Cl)cc2)cc1 [FENOFIBRATE] | Not Active | Not Active | – | – | Not Active | Not Active | Not Active | Not Active | – | – | – | – | – | – | –
OCCN1CCN(CCCN2c3ccccc3Sc3ccc(C(F)(F)F)cc32)CC1 [FLUPHENAZINE] | – | Not Active | – | – | – | – | Not Active | Not Active | 0.039 | 0.025 | 1.23 | 1.2 | 3.47 | 0.484 | –
CN1C2CCCC1CC(NC(=O)c1nn(C)c3ccccc13)C2 (configuration not stated) [GRANISETRON] | Not Active | Not Active | – | – | Not Active | Not Active | Not Active | Not Active | – | – | – | – | – | – | –
Nc1nc2c(c(=O)[nH]1)N(C=O)C(CNc1ccc(C(=O)N[C@@H](CCC(=O)O)C(=O)O)cc1)CN2 (some centres not stated) [LEUCOVORIN] | Not Active | Not Active | Not Active | Not Active | Not Active | Not Active | Not Active | Not Active | – | – | – | – | – | – | –
C[C@@H](O)[C@H]1C(=O)N2C(C(=O)O)=C(S[C@@H]3CN[C@H](C(=O)N(C)C)C3)[C@H](C)[C@H]12 [MEROPENEM] | Not Active | Not Active | Not Active | Not Active | Not Active | Not Active | Not Active | Not Active | – | – | – | – | – | – | –
CC[C@@H](CO)NC(=O)[C@@H]1C=C2c3cccc4c3c(cn4C)C[C@H]2N(C)C1 [METHYSERGIDE] | – | Not Active | – | – | Not Active | Not Active | Not Active | Not Active | – | – | – | – | – | – | –
CCN(CC)CC#CCOC(=O)C(O)(c1ccccc1)C1CCCCC1 (configuration not stated) [OXYBUTYNIN] | – | Not Active | – | – | Not Active | – | Not Active | Not Active | – | – | – | – | – | – | –
O=P(O)(O)C(O)(Cc1cccnc1)P(=O)(O)O [RISEDRONIC ACID] | Not Active | Not Active | Not Active | Not Active | Not Active | Not Active | Not Active | Not Active | – | – | – | – | – | – | –

Compound | IC50 ([1]; cho-k1) | IC50 ([2]; erythrocyte) | IC50 [3] | Ki [3] | IC50 ([4]; cho-k1) | IC50 ([5]; cho-k1) | IC50 [6] | Ki [6] | IC50 ([1]; read-out: IC50) [µM] | Ki [1] [µM] | IC50 ([4]; read-out: IC50) [µM] | Ki [4] [µM] | IC50 ([5]; read-out: IC50) [µM] | Ki ([5]; read-out: Ki) [µM] | IC50 ([2]; read-out: IC50) [µM]
CN(CCOc1ccc(CC2SC(=O)NC2=O)cc1)c1ccccn1 (configuration not stated) [ROSIGLITAZONE] | Not Active | – | Not Active | Not Active | Not Active | Not Active | Not Active | Not Active | – | – | – | – | – | – | 4.07
C=C(C)[C@H]1Cc2c(ccc3c2O[C@@H]2COc4cc(OC)c(OC)cc4[C@@H]2C3=O)O1 [ROTENONE] | Not Active | Not Active | Not Active | Not Active | Not Active | Not Active | Not Active | Not Active | – | – | – | – | – | – | –
C#CCN(C)[C@H](C)Cc1ccccc1 [SELEGILINE] | Not Active | Not Active | Not Active | Not Active | Not Active | Not Active | Not Active | Not Active | – | – | – | – | – | – | –
CO[C@H]1C[C@@H]2CC[C@@H](C)[C@@](O)(O2)C(=O)C(=O)N2CCCC[C@H]2C(=O)O[C@H]([C@H](C)C[C@@H]2CC[C@@H](O)[C@H](OC)C2)CC(=O)[C@H](C)/C=C(\C)[C@@H](O)[C@@H](OC)C(=O)[C@H](C)C[C@H](C)/C=C/C=C/C=C/1C [SIROLIMUS] | Not Active | Not Active | Not Active | Not Active | Not Active | Not Active | Not Active | Not Active | – | – | – | – | – | – | –
CN[C@@H]1[C@H](O)[C@H](NC)[C@H]2O[C@@]3(O)C(=O)C[C@@H](C)O[C@H]3O[C@@H]2[C@H]1O [SPECTINOMYCIN] | Not Active | Not Active | Not Active | Not Active | Not Active | Not Active | Not Active | Not Active | – | – | – | – | – | – | –
Nc1ccc(S(=O)(=O)Nc2ncccn2)cc1 [SULFADIAZINE] | Not Active | – | Not Active | Not Active | Not Active | Not Active | Not Active | Not Active | – | – | – | – | – | – | –
COc1ncnc(NS(=O)(=O)c2ccc(N)cc2)c1OC [SULFADOXINE] | Not Active | Not Active | Not Active | Not Active | Not Active | Not Active | Not Active | Not Active | – | – | – | – | – | – | –
Nc1ccc(S(=O)(=O)Nc2nccs2)cc1 [SULFATHIAZOLE] | Not Active | Not Active | Not Active | Not Active | Not Active | Not Active | Not Active | Not Active | – | – | – | – | – | – | –
C[C@]12CC[C@H]3[C@@H](CCC4=CC(=O)CC[C@@]43C)[C@@H]1CC[C@@H]2O [TESTOSTERONE] | Not Active | Not Active | Not Active | Not Active | Not Active | Not Active | Not Active | Not Active | – | – | – | – | – | – | –
CC(C)(C)NC[C@H](O)COc1nsnc1N1CCOCC1 [TIMOLOL] | Not Active | Not Active | Not Active | Not Active | Not Active | Not Active | Not Active | Not Active | – | – | – | – | – | – | –
CCS(=O)(=O)CCn1c([N+](=O)[O-])cnc1C [TINIDAZOLE] | Not Active | Not Active | Not Active | Not Active | Not Active | Not Active | – | – | – | – | – | – | – | – | –
C[C@@H]1C[C@H]2[C@@H]3CCC4=CC(=O)C=C[C@]4(C)C3=CC[C@]2(C)[C@H]1C(=O)CN1CCN(c2cc(N3CCCC3)nc(N3CCCC3)n2)CC1 [TIRILAZAD] | – | Not Active | Not Active | Not Active | – | Not Active | Not Active | Not Active | 18.5 | 11.8 | 14.1 | 13.9 | – | – | –
NC[C@H]1O[C@H](O[C@H]2[C@H](O)[C@@H](O[C@H]3O[C@H](CO)[C@@H](O)[C@H](N)[C@H]3O)[C@H](N)C[C@@H]2N)[C@H](N)C[C@@H]1O [TOBRAMYCIN] | Not Active | Not Active | Not Active | Not Active | Not Active | Not Active | Not Active | Not Active | – | – | – | – | – | – | –
O=c1n(CCCN2CCN(c3cccc(Cl)c3)CC2)nc2ccccn12 [TRAZODONE] | – | Not Active | – | – | Not Active | Not Active | Not Active | Not Active | – | – | – | – | – | – | –
O=C(O)C(Cl)(Cl)Cl [TRICHLOROACETIC ACID] | Not Active | Not Active | Not Active | Not Active | Not Active | Not Active | Not Active | Not Active | – | – | – | – | – | – | –
COc1ccc(CN2CCNCC2)c(OC)c1OC [TRIMETAZIDINE] | Not Active | Not Active | Not Active | Not Active | Not Active | Not Active | – | – | – | – | – | – | – | – | –
